Laboratory results reported in the kinase profiling compilation of Christmann-Franck et al. (2016).
“And” between values parts separate entries of the source, which are not always exact repeats. Identical values can stand only once.

How the values were obtained:
Experiment in all cases: Caliper, Mobility shift assay off-chip
CDK1 (human) = CDK1 (human) (UniProt P06493)
PRKCB1 (human) = PRKCB1 (human) (UniProt P05771)
BRSK1 (human) = BRSK1 (human) (UniProt Q8TDC3)
EPHA3 (human) = EPHA3 (human) (UniProt P29320)
HIPK4 (human) = HIPK4 (human) (UniProt Q8NE63)
PRKG2 (human) = PRKG2 (human) (UniProt Q13237)
PRKG2 (human), sequence (Q13237 whole entry, looked up): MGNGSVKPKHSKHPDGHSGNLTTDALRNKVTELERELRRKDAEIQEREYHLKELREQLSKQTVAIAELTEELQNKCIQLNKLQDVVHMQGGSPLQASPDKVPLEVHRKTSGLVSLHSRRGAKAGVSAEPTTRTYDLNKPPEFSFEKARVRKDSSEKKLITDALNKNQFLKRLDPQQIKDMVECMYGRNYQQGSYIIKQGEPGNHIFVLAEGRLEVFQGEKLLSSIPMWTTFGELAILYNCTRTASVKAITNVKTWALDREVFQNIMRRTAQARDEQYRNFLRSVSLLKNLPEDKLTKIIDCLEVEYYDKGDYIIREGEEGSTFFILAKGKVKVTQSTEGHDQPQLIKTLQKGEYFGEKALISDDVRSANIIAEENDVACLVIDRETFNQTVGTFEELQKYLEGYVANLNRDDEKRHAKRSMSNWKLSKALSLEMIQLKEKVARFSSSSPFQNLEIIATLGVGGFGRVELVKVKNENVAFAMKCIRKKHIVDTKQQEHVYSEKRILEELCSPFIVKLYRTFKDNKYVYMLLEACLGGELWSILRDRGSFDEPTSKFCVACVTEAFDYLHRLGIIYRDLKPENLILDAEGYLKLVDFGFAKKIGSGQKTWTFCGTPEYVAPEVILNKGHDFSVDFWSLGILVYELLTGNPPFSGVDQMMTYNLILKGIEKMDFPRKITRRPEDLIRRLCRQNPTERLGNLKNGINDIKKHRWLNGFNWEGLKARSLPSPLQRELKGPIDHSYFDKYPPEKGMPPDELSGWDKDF

JAK3 JH1 JH2 (human) = JAK3 JH1 JH2 (human) (UniProt P52333)
FYN (human) = FYN (human) (UniProt P06241)
TSSK1B (human) = TSSK1B (human) (UniProt Q9BXA7)
NEK4 (human) = NEK4 (human) (UniProt P51957)
CSNK1D (human) = CSNK1D (human) (UniProt P48730)
FGFR1 (human) = FGFR1 (human) (UniProt P11362)
FLT3 (human) = FLT3 (human) (UniProt P36888)
TYK2 JH1 JH2 (human) = TYK2 JH1 JH2 (human) (UniProt P29597)
MAPK8 (human) = MAPK8 (human) (UniProt P45983)
MUSK (human) = MUSK (human) (UniProt O15146)
MUSK (human), sequence (O15146 whole entry, looked up): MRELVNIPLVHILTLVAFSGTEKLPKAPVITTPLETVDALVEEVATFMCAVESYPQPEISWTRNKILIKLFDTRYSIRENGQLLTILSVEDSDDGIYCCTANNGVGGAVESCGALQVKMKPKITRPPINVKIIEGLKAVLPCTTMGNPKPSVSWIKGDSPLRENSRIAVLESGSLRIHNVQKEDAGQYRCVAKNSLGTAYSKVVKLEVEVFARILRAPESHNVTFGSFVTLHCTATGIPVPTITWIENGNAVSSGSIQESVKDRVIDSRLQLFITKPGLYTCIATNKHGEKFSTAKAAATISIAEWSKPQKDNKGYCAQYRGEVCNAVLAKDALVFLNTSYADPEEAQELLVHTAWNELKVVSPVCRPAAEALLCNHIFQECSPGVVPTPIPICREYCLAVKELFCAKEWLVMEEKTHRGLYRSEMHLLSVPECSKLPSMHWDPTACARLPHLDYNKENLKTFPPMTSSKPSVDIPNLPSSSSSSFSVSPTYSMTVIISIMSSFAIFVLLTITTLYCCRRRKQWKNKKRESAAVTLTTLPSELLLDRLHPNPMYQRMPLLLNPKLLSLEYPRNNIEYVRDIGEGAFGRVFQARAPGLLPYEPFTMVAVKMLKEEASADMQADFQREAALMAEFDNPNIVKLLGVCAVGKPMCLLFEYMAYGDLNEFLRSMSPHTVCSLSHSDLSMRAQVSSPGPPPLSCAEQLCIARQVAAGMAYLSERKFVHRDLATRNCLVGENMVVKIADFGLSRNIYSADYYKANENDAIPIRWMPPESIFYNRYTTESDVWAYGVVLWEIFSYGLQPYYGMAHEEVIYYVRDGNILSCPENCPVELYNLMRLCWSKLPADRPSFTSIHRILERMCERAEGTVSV

TNIK (human) = TNIK (human) (UniProt Q9UKE5)
CAMK1 (human) = CAMK1 (human) (UniProt Q14012)
CAMK1 (human), sequence (Q14012 whole entry, looked up): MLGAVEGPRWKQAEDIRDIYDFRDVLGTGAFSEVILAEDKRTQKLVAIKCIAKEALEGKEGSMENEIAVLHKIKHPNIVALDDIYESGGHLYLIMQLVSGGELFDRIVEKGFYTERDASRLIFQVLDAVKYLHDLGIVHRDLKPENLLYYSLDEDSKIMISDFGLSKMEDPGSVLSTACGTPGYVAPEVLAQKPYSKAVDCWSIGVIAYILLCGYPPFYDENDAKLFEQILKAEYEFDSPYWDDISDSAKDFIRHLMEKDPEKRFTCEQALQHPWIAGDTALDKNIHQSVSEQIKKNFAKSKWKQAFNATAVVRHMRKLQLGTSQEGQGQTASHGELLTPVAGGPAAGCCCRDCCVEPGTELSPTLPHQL

MAP4K2 (human) = MAP4K2 (human) (UniProt Q12851)
WNK2 (human) = WNK2 (human) (UniProt Q9Y3S1)
NUAK1 (human) = NUAK1 (human) (UniProt O60285)
CAMK2B (human) = CAMK2B (human) (UniProt Q13554)
MAPKAPK3 (human) = MAPKAPK3 (human) (UniProt Q16644)
MAPKAPK3 (human), sequence (Q16644 whole entry, looked up): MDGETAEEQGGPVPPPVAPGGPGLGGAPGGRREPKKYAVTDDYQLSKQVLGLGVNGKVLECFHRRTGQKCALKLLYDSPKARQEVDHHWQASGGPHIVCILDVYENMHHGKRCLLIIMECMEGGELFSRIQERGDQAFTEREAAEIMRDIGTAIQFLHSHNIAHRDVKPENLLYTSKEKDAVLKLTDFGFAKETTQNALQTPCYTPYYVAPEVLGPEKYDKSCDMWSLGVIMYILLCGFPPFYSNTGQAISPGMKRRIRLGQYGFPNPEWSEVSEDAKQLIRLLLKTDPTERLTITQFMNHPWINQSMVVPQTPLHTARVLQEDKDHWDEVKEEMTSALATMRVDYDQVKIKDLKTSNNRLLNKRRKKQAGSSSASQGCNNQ

PRKX (human) = PRKX (human) (UniProt P51817)
NEK7 (human) = NEK7 (human) (UniProt Q8TDX7)
CHUK (human) = CHUK (human) (UniProt O15111)
MYLK2 (human) = MYLK2 (human) (UniProt Q9H1R3)
MINK1 (human) = MINK1 (human) (UniProt Q8N4C8)
DYRK1B (human) = DYRK1B (human) (UniProt Q9Y463)
DYRK1B (human), sequence (Q9Y463 whole entry, looked up): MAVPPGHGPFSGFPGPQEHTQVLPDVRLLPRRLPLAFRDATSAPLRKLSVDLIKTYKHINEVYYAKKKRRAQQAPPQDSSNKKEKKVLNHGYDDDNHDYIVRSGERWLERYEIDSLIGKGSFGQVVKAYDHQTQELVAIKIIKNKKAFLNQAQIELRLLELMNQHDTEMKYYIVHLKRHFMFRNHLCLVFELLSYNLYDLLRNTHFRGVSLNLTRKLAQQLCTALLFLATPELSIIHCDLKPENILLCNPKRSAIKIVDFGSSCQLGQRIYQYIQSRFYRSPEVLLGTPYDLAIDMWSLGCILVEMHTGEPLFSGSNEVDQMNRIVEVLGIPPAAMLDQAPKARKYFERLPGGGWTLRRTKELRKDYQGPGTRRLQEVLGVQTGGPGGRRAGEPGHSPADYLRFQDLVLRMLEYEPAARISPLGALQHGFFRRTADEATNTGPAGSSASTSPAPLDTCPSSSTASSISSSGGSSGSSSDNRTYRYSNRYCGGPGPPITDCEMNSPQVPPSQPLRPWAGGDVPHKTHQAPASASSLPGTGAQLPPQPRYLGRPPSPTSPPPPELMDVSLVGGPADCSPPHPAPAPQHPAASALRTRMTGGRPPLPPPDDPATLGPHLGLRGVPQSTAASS

SPHK1 (human) = SPHK1 (human) (UniProt Q9NYA1)
IKBKB (human) = IKBKB (human) (UniProt O14920)
MAPK9 (human) = MAPK9 (human) (UniProt P45984)
MAPK9 (human), sequence (P45984 whole entry, looked up): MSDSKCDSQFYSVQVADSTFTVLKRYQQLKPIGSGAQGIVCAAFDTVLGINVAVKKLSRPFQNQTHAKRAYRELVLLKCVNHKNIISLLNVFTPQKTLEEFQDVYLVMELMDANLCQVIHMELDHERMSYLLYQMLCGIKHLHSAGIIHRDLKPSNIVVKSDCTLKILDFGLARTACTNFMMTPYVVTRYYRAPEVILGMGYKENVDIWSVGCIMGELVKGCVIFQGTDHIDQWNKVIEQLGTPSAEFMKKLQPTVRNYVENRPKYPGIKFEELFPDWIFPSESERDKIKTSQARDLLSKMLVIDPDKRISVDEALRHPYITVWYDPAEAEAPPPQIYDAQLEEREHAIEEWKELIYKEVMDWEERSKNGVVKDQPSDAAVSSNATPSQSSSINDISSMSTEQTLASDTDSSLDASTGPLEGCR

PIM2 (human) = PIM2 (human) (UniProt Q9P1W9)
FLT1 (human) = FLT1 (human) (UniProt P17948)

PRKCB1 (human), sequence (P05771 whole entry, looked up): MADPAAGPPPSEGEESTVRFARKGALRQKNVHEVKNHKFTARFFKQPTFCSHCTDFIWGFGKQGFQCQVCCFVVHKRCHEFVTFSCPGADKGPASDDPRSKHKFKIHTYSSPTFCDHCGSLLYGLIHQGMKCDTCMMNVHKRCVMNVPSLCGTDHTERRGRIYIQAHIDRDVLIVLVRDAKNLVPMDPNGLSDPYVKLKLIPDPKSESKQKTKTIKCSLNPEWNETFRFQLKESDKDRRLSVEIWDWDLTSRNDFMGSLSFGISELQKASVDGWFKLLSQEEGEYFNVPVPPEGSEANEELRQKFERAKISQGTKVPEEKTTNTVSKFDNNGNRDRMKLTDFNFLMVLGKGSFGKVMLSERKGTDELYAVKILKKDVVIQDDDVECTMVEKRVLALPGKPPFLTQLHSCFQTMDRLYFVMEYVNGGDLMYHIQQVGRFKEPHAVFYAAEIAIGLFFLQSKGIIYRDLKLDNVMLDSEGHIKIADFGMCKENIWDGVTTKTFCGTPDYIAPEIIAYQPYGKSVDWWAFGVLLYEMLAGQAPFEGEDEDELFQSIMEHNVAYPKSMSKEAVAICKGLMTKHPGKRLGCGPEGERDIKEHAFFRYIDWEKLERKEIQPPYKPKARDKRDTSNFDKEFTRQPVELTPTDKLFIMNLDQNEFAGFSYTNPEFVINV
BRSK1 (human), sequence (Q8TDC3 whole entry, looked up): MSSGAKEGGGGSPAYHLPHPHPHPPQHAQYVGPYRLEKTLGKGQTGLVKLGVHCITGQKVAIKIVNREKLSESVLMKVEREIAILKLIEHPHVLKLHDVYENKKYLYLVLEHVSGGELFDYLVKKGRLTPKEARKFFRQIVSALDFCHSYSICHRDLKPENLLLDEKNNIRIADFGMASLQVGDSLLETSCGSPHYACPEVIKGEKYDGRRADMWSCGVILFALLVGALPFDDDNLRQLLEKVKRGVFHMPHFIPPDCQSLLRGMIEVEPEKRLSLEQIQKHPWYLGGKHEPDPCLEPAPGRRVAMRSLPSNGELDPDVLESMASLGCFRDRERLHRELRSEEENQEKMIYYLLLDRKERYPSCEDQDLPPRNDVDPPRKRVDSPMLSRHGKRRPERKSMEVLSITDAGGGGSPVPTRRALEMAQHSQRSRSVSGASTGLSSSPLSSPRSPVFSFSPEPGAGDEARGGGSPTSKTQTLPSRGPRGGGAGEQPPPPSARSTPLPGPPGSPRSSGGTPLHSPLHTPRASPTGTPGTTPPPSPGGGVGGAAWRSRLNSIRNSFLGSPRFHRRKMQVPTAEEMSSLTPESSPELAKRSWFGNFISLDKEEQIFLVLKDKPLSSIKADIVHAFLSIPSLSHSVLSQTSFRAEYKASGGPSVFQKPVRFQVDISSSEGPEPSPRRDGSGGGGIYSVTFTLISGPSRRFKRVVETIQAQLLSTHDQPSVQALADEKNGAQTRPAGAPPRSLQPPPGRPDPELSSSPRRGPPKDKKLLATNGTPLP

COc1cc2c(Oc3ccc4[nH]c(C)cc4c3F)ncnc2cc1OCCCN1CCCC1
inhibition (CDK1 (human); compound 0.02 µM): -0.7%
inhibition (CDK1 (human); compound 0.2 µM): -3.2%
inhibition (PRKCB1 (human); compound 0.02 µM): 5.1% and 8.3%
inhibition (PRKCB1 (human); compound 0.2 µM): 7.3% and 7.5%
inhibition (BRSK1 (human); compound 0.02 µM): 2.2%
inhibition (BRSK1 (human); compound 0.2 µM): 7.5%
inhibition (EPHA3 (human); compound 0.02 µM): -6.9%
inhibition (EPHA3 (human); compound 0.2 µM): -1.2%
inhibition (HIPK4 (human); compound 0.02 µM): -0.9%
inhibition (HIPK4 (human); compound 0.2 µM): -6.5%
inhibition (PRKG2 (human); compound 0.02 µM): -2.4%
inhibition (PRKG2 (human); compound 0.2 µM): -3.4%
inhibition (JAK3 JH1 JH2 (human); compound 0.02 µM): 5.1%
inhibition (JAK3 JH1 JH2 (human); compound 0.2 µM): 4%
inhibition (FYN (human); compound 0.02 µM): 13.7%
inhibition (FYN (human); compound 0.2 µM): 35.9%
inhibition (TSSK1B (human); compound 0.02 µM): -3.6%
inhibition (TSSK1B (human); compound 0.2 µM): -3.6%
inhibition (NEK4 (human); compound 0.02 µM): -3.8%
inhibition (NEK4 (human); compound 0.2 µM): -3.9%
inhibition (CSNK1D (human); compound 0.02 µM): -3.7% and -4.3%
inhibition (CSNK1D (human); compound 0.2 µM): -3.5% and -3.9%
inhibition (FGFR1 (human); compound 0.02 µM): 52.9%
inhibition (FGFR1 (human); compound 0.2 µM): 91.2%
inhibition (FLT3 (human); compound 0.02 µM): 10%
inhibition (FLT3 (human); compound 0.2 µM): 9.8%
inhibition (TYK2 JH1 JH2 (human); compound 0.02 µM): 4.8%
inhibition (TYK2 JH1 JH2 (human); compound 0.2 µM): 2.2%
inhibition (MAPK8 (human); compound 0.02 µM): -2.8%
inhibition (MAPK8 (human); compound 0.2 µM): -2.5%
inhibition (MUSK (human); compound 0.02 µM): -4.8%
inhibition (MUSK (human); compound 0.2 µM): -1.6%
inhibition (TNIK (human); compound 0.02 µM): -0.5%
inhibition (TNIK (human); compound 0.2 µM): 24.9%
inhibition (CAMK1 (human); compound 0.02 µM): -3.1%
inhibition (CAMK1 (human); compound 0.2 µM): -3.1%
inhibition (MAP4K2 (human); compound 0.02 µM): 2.6%
inhibition (MAP4K2 (human); compound 0.2 µM): 18.4%
inhibition (WNK2 (human); compound 0.02 µM): 3.8%
inhibition (WNK2 (human); compound 0.2 µM): 2.8%
inhibition (NUAK1 (human); compound 0.02 µM): 8.9%
inhibition (NUAK1 (human); compound 0.2 µM): -13.6%
inhibition (CAMK2B (human); compound 0.02 µM): -4.3%
inhibition (CAMK2B (human); compound 0.2 µM): -6%
inhibition (MAPKAPK3 (human); compound 0.02 µM): 1.1%
inhibition (MAPKAPK3 (human); compound 0.2 µM): -0.2%
inhibition (PRKX (human); compound 0.02 µM): 1.7%
inhibition (PRKX (human); compound 0.2 µM): -0.9%
inhibition (NEK7 (human); compound 0.02 µM): -3.6%
inhibition (NEK7 (human); compound 0.2 µM): -4%
inhibition (CHUK (human); compound 0.02 µM): 5.3%
inhibition (CHUK (human); compound 0.2 µM): 5.3%
inhibition (MYLK2 (human); compound 0.02 µM): -2.3%
inhibition (MYLK2 (human); compound 0.2 µM): -2.4%
inhibition (MINK1 (human); compound 0.02 µM): 3.5%
inhibition (MINK1 (human); compound 0.2 µM): 2.9%
inhibition (DYRK1B (human); compound 0.02 µM): 6.7%
inhibition (DYRK1B (human); compound 0.2 µM): -1.1%
inhibition (SPHK1 (human); compound 0.02 µM): -5.6%
inhibition (SPHK1 (human); compound 0.2 µM): -7.8%
inhibition (IKBKB (human); compound 0.02 µM): -4%
inhibition (IKBKB (human); compound 0.2 µM): -4.5%
inhibition (MAPK9 (human); compound 0.02 µM): -9.4%
inhibition (MAPK9 (human); compound 0.2 µM): -7.7%
inhibition (PIM2 (human); compound 0.02 µM): 6.1%
inhibition (PIM2 (human); compound 0.2 µM): 8.8%
inhibition (FLT1 (human); compound 0.02 µM): 91.6%
inhibition (FLT1 (human); compound 0.2 µM): 102%

CCN(CC)CCNC(=O)c1c(C)[nH]c(/C=C2\C(=O)Nc3ccc(F)cc32)c1C
inhibition (CDK1 (human); compound 0.2 µM): -3%
inhibition (CDK1 (human); compound 4.0 µM): 16%
inhibition (PRKCB1 (human); compound 0.2 µM): 0% and -1.3%
inhibition (PRKCB1 (human); compound 4.0 µM): 20% and 27.2%
inhibition (BRSK1 (human); compound 0.2 µM): 40%
inhibition (BRSK1 (human); compound 4.0 µM): 86.6%
inhibition (EPHA3 (human); compound 0.2 µM): -0.2%
inhibition (EPHA3 (human); compound 4.0 µM): 21.2%
inhibition (HIPK4 (human); compound 0.2 µM): 67.4%
inhibition (HIPK4 (human); compound 4.0 µM): 96.8%
inhibition (PRKG2 (human); compound 0.2 µM): 9.3%
inhibition (PRKG2 (human); compound 4.0 µM): 65.5%
inhibition (JAK3 JH1 JH2 (human); compound 0.2 µM): 37.5%
inhibition (JAK3 JH1 JH2 (human); compound 4.0 µM): 96%
inhibition (FYN (human); compound 0.2 µM): 45.3%
inhibition (FYN (human); compound 4.0 µM): 93.3%
inhibition (TSSK1B (human); compound 0.2 µM): 63.2%
inhibition (TSSK1B (human); compound 4.0 µM): 95.5%
inhibition (NEK4 (human); compound 0.2 µM): -2.5%
inhibition (NEK4 (human); compound 4.0 µM): 8.9%
inhibition (CSNK1D (human); compound 4.0 µM): 86.1% and 97.8%
inhibition (FGFR1 (human); compound 0.2 µM): 52.9%
inhibition (FGFR1 (human); compound 4.0 µM): 96.2%
inhibition (FLT3 (human); compound 0.2 µM): 100%
inhibition (FLT3 (human); compound 4.0 µM): 102%
inhibition (TYK2 JH1 JH2 (human); compound 0.2 µM): 21.6%
inhibition (TYK2 JH1 JH2 (human); compound 4.0 µM): 78.3%
inhibition (MAPK8 (human); compound 0.2 µM): -3.9%
inhibition (MAPK8 (human); compound 4.0 µM): -16%
inhibition (MUSK (human); compound 0.2 µM): 94.8%
inhibition (MUSK (human); compound 4.0 µM): 101%
inhibition (TNIK (human); compound 0.2 µM): 87.5%
inhibition (TNIK (human); compound 4.0 µM): 98.1%
inhibition (CAMK1 (human); compound 0.2 µM): 7.3%
inhibition (CAMK1 (human); compound 4.0 µM): 61.2%
inhibition (MAP4K2 (human); compound 0.2 µM): 69.5%
inhibition (WNK2 (human); compound 0.2 µM): 1.7%
inhibition (WNK2 (human); compound 4.0 µM): -2.1%
inhibition (NUAK1 (human); compound 0.2 µM): 95.6%
inhibition (NUAK1 (human); compound 4.0 µM): 101%
inhibition (CAMK2B (human); compound 0.2 µM): 5.2%
inhibition (CAMK2B (human); compound 4.0 µM): 66.5%
inhibition (MAPKAPK3 (human); compound 0.2 µM): 1.2%
inhibition (MAPKAPK3 (human); compound 4.0 µM): 3.2%
inhibition (PRKX (human); compound 0.2 µM): 7.7%
inhibition (PRKX (human); compound 4.0 µM): 66.3%
inhibition (NEK7 (human); compound 0.2 µM): -1.4%
inhibition (NEK7 (human); compound 4.0 µM): -5.6%
inhibition (CHUK (human); compound 0.2 µM): 3%
inhibition (CHUK (human); compound 4.0 µM): 2.9%
inhibition (MYLK2 (human); compound 0.2 µM): 81.9%
inhibition (MINK1 (human); compound 0.2 µM): 56.6%
inhibition (MINK1 (human); compound 4.0 µM): 99.7%
inhibition (DYRK1B (human); compound 4.0 µM): 74.7%
inhibition (SPHK1 (human); compound 0.2 µM): -10.4%
inhibition (SPHK1 (human); compound 4.0 µM): -9.1%
inhibition (IKBKB (human); compound 0.2 µM): -2.1%
inhibition (IKBKB (human); compound 4.0 µM): 4.2%
inhibition (MAPK9 (human); compound 0.2 µM): -8.7%
inhibition (MAPK9 (human); compound 4.0 µM): -15.7%
inhibition (PIM2 (human); compound 0.2 µM): 2.5%
inhibition (PIM2 (human); compound 4.0 µM): 12.1%
inhibition (FLT1 (human); compound 0.2 µM): 90.4%
inhibition (FLT1 (human); compound 4.0 µM): 103%
